The source of these data is US7906507B2, “Oxadiazoanthracene compounds for the treatment of diabetes” (TransTech Pharma, Inc., priority 2008, dated 2011).

The experiment deals with T1, cloned human GLP-1 receptor (Homo sapiens, UniProt P43220).
T1 construct: expressed in transfected cells; host or cells: CHO or HEK-293 cells
Description: Functional cell-based assay: cAMP functional assay. Particulars: for Emax: 0.5 h, percentage relative to maximal GLP-1-induced cAMP accumulation, na = not active in the assay, read-out: % activation. How it is done:
Following overnight incubation of cells, media was removed, and compounds (at concentrations ranging from 0.0001 to 100 μM) were added to monolayer cells in Iscove's modified dulbecco's medium (IMDM), 100 μM RO 20-1724 PDE inhibitor, 0.1% BSA, 2% DMSO in a final volume of 100 μL, and incubated for 30 min at 37° C. 95% O2, 5% CO2 in a humidified incubator. cAMP was quantitated using a homogenous time-resolved fluorescence detection system (cAMP dynamic, CIS bio International).
For orientation: Changes in cAMP serve as a functional read-out for many G protein-coupled receptors.

T1 sequence (P43220 24-463): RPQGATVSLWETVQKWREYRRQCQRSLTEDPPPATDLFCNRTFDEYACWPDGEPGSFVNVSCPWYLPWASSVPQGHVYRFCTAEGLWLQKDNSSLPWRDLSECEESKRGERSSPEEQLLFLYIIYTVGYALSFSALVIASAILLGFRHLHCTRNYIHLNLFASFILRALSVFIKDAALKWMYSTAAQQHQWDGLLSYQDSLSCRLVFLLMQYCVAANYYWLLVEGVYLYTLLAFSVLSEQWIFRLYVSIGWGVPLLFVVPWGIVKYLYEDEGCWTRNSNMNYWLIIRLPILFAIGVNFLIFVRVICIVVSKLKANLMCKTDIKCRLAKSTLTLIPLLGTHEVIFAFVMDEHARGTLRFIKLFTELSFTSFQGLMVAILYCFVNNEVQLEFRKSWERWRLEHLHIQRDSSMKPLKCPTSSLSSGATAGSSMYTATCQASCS

Consider `CC(=O)Nc1nc(C)c(S(=O)(=O)N2Cc3cc4c(cc3C[C@H]2C(=O)N[C@@H](Cc2ccc(-c3ccc(C#N)cc3)cc2)C(=O)O)NC(=O)C(c2ccc(OCc3ccc(Cl)c(Cl)c3)cc2)O4)s1` (single isomer, unassigned) [Example 81], for which the concentration giving a half-maximal response (EC50) (usually the concentration at which the effect is half-maximal) was 70 nM and the Emax came out at 25%.
Consider `CC[C@@H](c1ccccc1)N1Cc2cc3c(cc2C[C@H]1C(=O)N[C@@](C)(Cc1ccc(-c2ccc(C#N)cc2)cc1)C(=O)O)N(C)C(=O)C(c1ccc(OCc2ccc(Cl)c(Cl)c2)cc1)O3` (stereo in doubt) [Example 97, (S)-3-(4′-Cyano-biphenyl-4-yl)-2-{[(S)-3-[4-(3,4-dichloro-benzyloxy)-phenyl]-1-methyl-2-oxo-6-((S)-1-phenyl-propyl)-2,3,5,6,7,8-hexahydro-1H-4-oxa-1,6-diaza-anthracene-7-carbonyl]-amino}-2-methyl-propionic acid], for which the EC50 came to 38.2 nM and the Emax came to 38%.
`N#Cc1ccc(-c2ccc(C[C@H](NC(=O)[C@@H]3Cc4cc5c(cc4CN3C(=O)OC3CCC(O)CC3)OC(c3ccc(OCc4ccc(Cl)c(Cl)c4)cc3)C(=O)N5)C(=O)O)cc2)cc1` (stereo partly drawn) [Example 1, (S)-7-[(S)-1-Carboxy-2-(4′-cyano-biphenyl-4-yl)-ethylcarbamoyl]-3-[4-(3,4-dichloro-benzyloxy)-phenyl]-2-oxo-1,2,3,5,7,8-hexahydro-4-oxa-1,6-diaza-anthracene-6-carboxylic acid 4-hydroxy-cyclohexyl ester]: the EC50 worked out at 900 nM and the Emax was determined as 15%.
As to `N#Cc1ccc(-c2ccc(C[C@H](NC(=O)[C@@H]3Cc4cc5c(cc4CN3C(=O)OC3CCC(O)C3)OC(c3ccc(OCc4ccc(Cl)c(Cl)c4)cc3)C(=O)N5)C(=O)O)cc2)cc1` (stereo partly drawn) [Example 2, (S)-7-[(S)-1-Carboxy-2-(4′-cyano-biphenyl-4-yl)-ethylcarbamoyl]-3-[4-(3,4-dichloro-benzyloxy)-phenyl]-2-oxo-1,2,3,5,7,8-hexahydro-4-oxa-1,6-diaza-anthracene-6-carboxylic acid 3-hydroxy-cyclopentyl ester], the EC50 was 670 nM and the Emax came out at 7.8%.
As for `N#Cc1ccc(-c2ccc(C[C@H](NC(=O)[C@@H]3Cc4cc5c(cc4CN3C(=O)c3cccnc3)OC(c3ccc(OCc4ccc(Cl)c(Cl)c4)cc3)C(=O)N5)C(=O)O)cc2)cc1` (stereo partly drawn) [Example 4, (S)-3-(4′-Cyano-biphenyl-4-yl)-2-{[(S)-3-[4-(3,4-dichloro-benzyloxy)-phenyl]-2-oxo-6-(pyridine-3-carbonyl)-2,3,5,6,7,8-hexahydro-1H-4-oxa-1,6-diaza-anthracene-7-carbonyl]-amino}-propionic acid], the EC50 came out at 3800 nM and the Emax was 20%.
With `N#Cc1ccc(-c2ccc(C[C@H](NC(=O)[C@@H]3Cc4cc5c(cc4CN3C(=O)[C@@H]3CCCO3)OC(c3ccc(OCc4ccc(Cl)c(Cl)c4)cc3)C(=O)N5)C(=O)O)cc2)cc1` (stereo partly drawn) [Example 5, (S)-3-(4′-Cyano-biphenyl-4-yl)-2-{[(S)-3-[4-(3,4-dichloro-benzyloxy)-phenyl]-2-oxo-6-((S)-tetrahydro-furan-2-carbonyl)-2,3,5,6,7,8-hexahydro-1H-4-oxa-1,6-diaza-anthracene-7-carbonyl]-amino}-propionic acid], the EC50 amounted to 30000 nM and the Emax was 18%.
As to `N#Cc1ccc(-c2ccc(C[C@H](NC(=O)[C@@H]3Cc4cc5c(cc4CN3C(=O)[C@H]3CCCO3)OC(c3ccc(OCc4ccc(Cl)c(Cl)c4)cc3)C(=O)N5)C(=O)O)cc2)cc1` (stereo partly drawn) [Example 6, (S)-3-(4′-Cyano-biphenyl-4-yl)-2-{[(S)-3-[4-(3,4-dichloro-benzyloxy)-phenyl]-2-oxo-6-((R)-tetrahydro-furan-2-carbonyl)-2,3,5,6,7,8-hexahydro-1H-4-oxa-1,6-diaza-anthracene-7-carbonyl]-amino}-propionic acid], the EC50 was determined as 3600 nM and the Emax amounted to 7%.
